# Measurements from ChEMBL document CHEMBL1129099, “Non-peptide fibrinogen receptor antagonists based upon a 4-substituted piperidine scaffold” (Bioorg Med Chem Lett, 1996).
# How the values were obtained:
# [1] = target: Integrin alpha-IIb/beta-3 (Homo sapiens, UniProt P05106+P08514); assay: Inhibition of [125I]- Fg binding to fibrinogen receptor of activated human platelets
# Homo sapiens = species: Homo sapiens; assay: Evaluated for human platelet aggregation.; format: functional
# Sequence of Integrin alpha-IIb/beta-3 (P05106 27-788 limits assumed): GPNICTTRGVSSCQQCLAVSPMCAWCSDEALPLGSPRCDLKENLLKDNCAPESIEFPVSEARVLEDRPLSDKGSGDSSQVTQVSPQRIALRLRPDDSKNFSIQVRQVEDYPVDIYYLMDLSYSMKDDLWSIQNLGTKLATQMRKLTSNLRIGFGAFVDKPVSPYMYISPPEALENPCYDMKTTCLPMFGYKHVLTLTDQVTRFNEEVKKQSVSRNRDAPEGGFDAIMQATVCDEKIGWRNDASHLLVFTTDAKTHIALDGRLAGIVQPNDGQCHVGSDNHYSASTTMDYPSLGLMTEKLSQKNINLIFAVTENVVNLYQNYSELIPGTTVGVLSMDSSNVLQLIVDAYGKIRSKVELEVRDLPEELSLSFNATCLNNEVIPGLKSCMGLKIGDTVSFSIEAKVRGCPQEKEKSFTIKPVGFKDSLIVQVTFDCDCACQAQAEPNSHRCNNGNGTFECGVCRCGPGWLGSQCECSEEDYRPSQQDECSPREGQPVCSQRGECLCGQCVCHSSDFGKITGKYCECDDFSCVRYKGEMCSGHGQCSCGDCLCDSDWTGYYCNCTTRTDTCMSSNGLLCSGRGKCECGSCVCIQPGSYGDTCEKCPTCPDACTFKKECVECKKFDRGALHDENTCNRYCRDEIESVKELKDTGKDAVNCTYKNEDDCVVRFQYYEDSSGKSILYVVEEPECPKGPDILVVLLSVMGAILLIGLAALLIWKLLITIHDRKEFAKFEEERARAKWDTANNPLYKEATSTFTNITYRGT
# Sequence of Integrin alpha-IIb/beta-3 (P08514 32-887 limits assumed): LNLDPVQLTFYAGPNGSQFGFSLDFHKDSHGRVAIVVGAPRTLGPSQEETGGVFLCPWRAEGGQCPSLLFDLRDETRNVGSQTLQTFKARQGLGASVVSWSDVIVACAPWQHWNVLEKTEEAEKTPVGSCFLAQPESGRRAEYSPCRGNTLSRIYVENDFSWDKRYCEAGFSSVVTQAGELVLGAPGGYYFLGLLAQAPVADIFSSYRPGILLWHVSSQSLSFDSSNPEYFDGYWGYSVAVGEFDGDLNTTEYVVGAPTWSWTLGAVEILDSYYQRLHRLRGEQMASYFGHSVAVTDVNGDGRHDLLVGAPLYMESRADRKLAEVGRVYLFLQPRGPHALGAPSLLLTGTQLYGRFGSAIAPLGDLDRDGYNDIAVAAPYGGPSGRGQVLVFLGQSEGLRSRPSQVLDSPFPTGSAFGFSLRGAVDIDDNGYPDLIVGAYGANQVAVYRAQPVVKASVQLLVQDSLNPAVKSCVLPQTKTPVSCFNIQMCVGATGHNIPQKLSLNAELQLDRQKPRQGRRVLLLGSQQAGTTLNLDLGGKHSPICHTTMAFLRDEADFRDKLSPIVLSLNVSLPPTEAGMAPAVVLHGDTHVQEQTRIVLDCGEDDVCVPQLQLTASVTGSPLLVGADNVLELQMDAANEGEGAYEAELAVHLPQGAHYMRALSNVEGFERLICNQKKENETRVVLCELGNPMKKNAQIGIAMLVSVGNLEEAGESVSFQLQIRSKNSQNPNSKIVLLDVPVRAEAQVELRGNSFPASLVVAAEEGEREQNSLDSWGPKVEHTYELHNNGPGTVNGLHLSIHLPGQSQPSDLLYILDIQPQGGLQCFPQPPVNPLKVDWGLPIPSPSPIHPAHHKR
# Sequence of Integrin alpha-IIb/beta-3 (P08514 891-1039 limits assumed): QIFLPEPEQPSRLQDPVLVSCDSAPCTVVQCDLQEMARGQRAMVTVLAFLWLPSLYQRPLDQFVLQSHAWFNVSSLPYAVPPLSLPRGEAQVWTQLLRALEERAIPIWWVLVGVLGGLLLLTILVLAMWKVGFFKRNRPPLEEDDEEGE
IC50 [1],IC50 (Homo sapiens),Compound
> 25000 nM,–,CCCCS(=O)(=O)N[C@H](CCC(=O)N1CCC(CCCC2CCNCC2)CC1)C(=O)O
70 nM,130 nM,CCCCCCCCS(=O)(=O)N[C@@H](CCC(=O)N1CCC(CCCC2CCNCC2)CC1)C(=O)O
8400 nM,–,CCCCCN[C@@H](CCC(=O)N1CCC(CCCC2CCNCC2)CC1)C(=O)O
20 nM,20 nM,O=C(O)[C@H](CCC(=O)N1CCC(CCCC2CCNCC2)CC1)NS(=O)(=O)Cc1ccccc1
6700 nM,–,O=C(O)CCCCC(=O)N1CCC(CCCC2CCNCC2)CC1
130 nM,–,CCCCS(=O)(=O)N[C@H](CCC(=O)O)C(=O)N1CCC(CCCC2CCNCC2)CC1
950 nM,–,CCCCS(=O)(=O)NC(CC(=O)O)CC(=O)N1CCC(CCCC2CCNCC2)CC1 (centres undefined)
30 nM,–,O=C(O)[C@H](CCC(=O)N1CCC(CCCC2CCNCC2)CC1)NS(=O)(=O)c1ccccc1
> 25000 nM,–,O=C(O)CCC(=O)N1CCC(CCCC2CCNCC2)CC1
3000 nM,–,O=C(O)CCCC(=O)N1CCC(CCCC2CCNCC2)CC1
10 nM,20 nM,CCCc1ccc(S(=O)(=O)N[C@@H](CCC(=O)N2CCC(CCCC3CCNCC3)CC2)C(=O)O)cc1
> 25000 nM,–,CCCCS(=O)(=O)N[C@@H](CCC(=O)O)C(=O)N1CCC(CCCC2CCNCC2)CC1
40 nM,10 nM,O=C(O)[C@H](CCC(=O)N1CCC(CCCC2CCNCC2)CC1)NS(=O)(=O)c1cccc2ccccc12
30 nM,30 nM,O=C(O)[C@H](CCC(=O)N1CCC(CCCC2CCNCC2)CC1)NS(=O)(=O)c1ccc(-c2ccccc2)cc1
110 nM,70 nM,CCCCS(=O)(=O)N[C@@H](CCC(=O)N1CCC(CCCC2CCNCC2)CC1)C(=O)O
250 nM,–,CCCCC(=O)N[C@@H](CCC(=O)N1CCC(CCCC2CCNCC2)CC1)C(=O)O
40 nM,10 nM,O=C(O)[C@H](CCC(=O)N1CCC(CCCC2CCNCC2)CC1)NS(=O)(=O)c1ccc2ccccc2c1
